Measured values taken from patent US20080026417A1, “ASSAYS FOR TRICHOMONAL AND OTHER HYDROLASES” (priority 2002, published 2008).
Ends that are not written are not given here. Peptide text beside a SMILES is read from it. * marks the point of attachment. AMC = Cc1cc(=O)oc2cc(N*)ccc12; Cbz = O=C(OCc1ccccc1)*; Boc = CC(C)(C)OC(=O)*

Assays:
trichomonal hydrolases [1] = assay: Experiment 2: hydrolysis of substrates by trichomonal hydrolases with or without NVS, absorbance 540 nm; format: biochemical, Trichomonas vaginalis; conditions: absorbance at 540 nm per method; for Color Scores: Trichomonal hydrolases + NVS: 10% NVS
Procedure: Substrate solutions containing 8 mM of one of the four substrates (ZRR-MNA, BLRR-AMC, BLKR-AMC, ZKKR-AMC) in one of the two buffers (acetate, TRIS) were prepared by mixing 4 μL 100 mM substrate with 6 μL 6.3 mM L-cysteine, 14 μL 200 mM buffer and 26 μL water. Assays of trichomonal hydrolase activity, with or without the addition of NVS, were performed in 200 μL microwells. In one set of microwells, 10 μL of each substrate/buffer combination was mixed with 10 μL of undiluted trichomonal hydrolases. In a second set of microwells, 10 μL of each substrate/buffer combination was mixed with 10 μL of a mixture of 90% v/v trichomonal hydrolases and 10% NVS. Fifteen minutes later, 50 μL of indicator solution was added to each well. After another fifteen minutes, the absorbance of each solution in the wells was measured on a microtiter plate reader set on 540 nm wavelength.

[2] = tested on: hydrolases present in whole normal vaginal fluid; assay: Experiment 2: hydrolysis of substrates by whole normal vaginal fluid, visual color score; format: biochemical, human; set-up: key: 0: Yellow; 1: Peach; 2: Orange; 3: Light to medium pink; 4: Dark pink or red; 5: Fuchsia; 6: Purple; conditions: visual 0-6 scale
Procedure: Due to the partial opacity of cells and other particulate matter in whole vaginal fluid, assays of hydrolase activity present in whole vaginal fluid were performed in 20 μL conical microwells and scored visually. The vaginal fluid from a single normal, uninfected donor was agitated to resuspend the particulate matter, and 2 μL aliquots of the vaginal fluid were mixed with 2 μL of each substrate/buffer combination. To retard evaporation from the wells, water was pipetted into the mini-tray adjacent to the wells prior to replacing the tray cover. Fifteen minutes later, 2 μL of indicator solution was added to each well. After another fifteen minutes, the color in each well was visually scored in 0.5-unit increments using the 0-6 scale presented in Table 2.1.

trichomonal hydrolases [3] = assay: Experiment 13: hydrolysis of peptide substrates by trichomonal hydrolases at low pH in vaginal fluid supernatant; format: biochemical, Trichomonas vaginalis; set-up: key: −: No red color produced; +: Clearly visible red color produced; ++: Moderately intense red color produced; +++: Very intense red color produced; conditions: Fast Garnet
Procedure: (§1) Forty μL of each substrate was pipetted into duplicate wells of a microtiter plate. The plate was covered with tape, placed into a 25° C. incubator, and allowed to warm. A diluted enzyme mixture was prepared by mixing one part (v/v) freshly-thawed trichomonal hydrolase solution to nine parts 2 mM L-cysteine solution. Forty μL of this mixture was added to one well of each pair of duplicate wells. For negative controls, 40 μL of 2 mM L-cysteine was added to the second well in each pair of duplicate wells. The plate was returned to the incubator and incubated for ten minutes. Forty μL of SDS/acetate solution was added to each well, followed by 40 μL of Fast Garnet solution. The intensity of color that developed in each well after five minutes was visually scored using the color scale presented in Table 13.1.
Of the nine substrates hydrolyzed by trichomonal hydrolases to produce an intense pink color (scoring ++ or +++) in the absence of vaginal fluid supernatant, only four produced intense pink color when vaginal fluid supernatant was present.

trichomonal hydrolases [4] = assay: Experiment 13: hydrolysis of peptide substrates by trichomonal hydrolases at low pH, no vaginal fluid; format: biochemical, Trichomonas vaginalis; set-up: key: −: No red color produced; +: Clearly visible red color produced; ++: Moderately intense red color produced; +++: Very intense red color produced; conditions: without vaginal fluid; threonine buffer pH 2.4; 2 mM substrate solution; 10 min 25° C.; Fast Garnet
Procedure: as §1

trichomonal hydrolases [5] = assay: Experiment 1: hydrolysis of substrates by trichomonal hydrolases at pH 2.8-9.2, with or without normal vaginal fluid supernatant (NVS), absorbance 540 nm; format: biochemical, Trichomonas vaginalis; conditions: for Absorbance Readings: 540 nm
Procedure: Assays without normal vaginal fluid supernatant present: Two sets of six wells in a microtiter plate were prepared, with each well containing 80 μL of one of the six 200 mM buffers, 10 μL of water and 10 μL of diluted trichomonal hydrolases. Ten μL of ZRR-MNA was added to each well in the first set of wells, and 10 μl of VLK-MNA was added to each well in the second set of wells. After fifteen minutes, 100 μl of indicator solution was added to each well. Because a high pH can reduce the intensity of color produced by the indicator solution, 50 μl of 100 mM acetic acid buffer, pH 3.7, was added to each well except the pH 2.8 wells (water was substituted for the acetic acid in those wells). After another fifteen minutes, the absorbance of the solutions in the wells was measured on a microtiter plate reader set on 540 nm wavelength.
Assays with normal vaginal fluid supernatant (NVS) present: The procedure of the preceding paragraph was followed, except that 10 μL of diluted NVS was added to the wells in place of the 10 μL of water.

[6] = tested on: non-trichomonal hydrolases present in vaginal fluid; assay: Experiment 8: polypeptide inhibition of hydrolases in whole vaginal fluid of uninfected women; format: biochemical, human; set-up: key: 0: Yellow; 1: Peach; 2: Orange; 3: Light to medium pink; 4: Dark pink or red; 5: Fuchsia; 6: Purple; conditions: ZRR-MNA, 10 mM polypeptide in substrate solution
Procedure: (§2) The vaginal fluid was extracted from each swab by centrifugation, and then mixed to resuspend the particulate matter. For each donor, 2 μL of vaginal fluid was pipetted into each of ten microwells, then 2 μL of one of the ten substrate/buffer/polypeptide combinations was added to each well. Additionally, 2 μL of trichomonal hydrolases was mixed with 2 μL of each of the substrate/polypeptide combinations in set of ten wells. After fifteen minutes, 2 μL of indicator solution was added to each well.

trichomonal hydrolases [7] = assay: Experiment 8: polypeptide inhibition of trichomonal hydrolases; format: biochemical, Trichomonas vaginalis; set-up: key: 0: Yellow; 1: Peach; 2: Orange; 3: Light to medium pink; 4: Dark pink or red; 5: Fuchsia; 6: Purple; conditions: 10 mM polypeptide in substrate solution
Procedure: as §2

[8] = pH 5, Donor A whole vaginal fluid
[9] = pH 5, Donor B whole vaginal fluid
[10] = pH 5, Donor C whole vaginal fluid
[11] = pH 5, Donor D whole vaginal fluid
[12] = pH 8, Donor A whole vaginal fluid
[13] = pH 8, Donor B whole vaginal fluid
[14] = pH 8, Donor C whole vaginal fluid
[15] = pH 8, Donor D whole vaginal fluid

Cc1cc(=O)oc2cc(NC(=O)[C@H](CCCN=C(N)N)NC(=O)[C@H](CCCCN)NC(=O)[C@H](CC(C)C)NC(=O)OC(C)(C)C)ccc12 [BLKR-AMC, BOC-Leu-Lys-Arg-AMC] (Boc-Leu-Lys-Arg-{AMC})
Color Scores: Trichomonal hydrolases + NVS (trichomonal hydrolases [1]; pH 5 acetate): 0.123
Color Scores: Trichomonal hydrolases (trichomonal hydrolases [1]; pH 5 acetate): 0.638
Color Scores: Trichomonal hydrolases + NVS (trichomonal hydrolases [1]; pH 8 TRIS): 0.731
Color Scores: Trichomonal hydrolases (trichomonal hydrolases [1]; pH 8 TRIS): 0.649
Color Scores: Whole normal vaginal fluid ([2]; pH 5 acetate): 0.5
Color Scores: Whole normal vaginal fluid ([2]; pH 8 TRIS): 6

Cc1cc(=O)oc2cc(NC(=O)[C@H](CCCN=C(N)N)NC(=O)[C@H](CCCN=C(N)N)NC(=O)[C@H](CC(C)C)NC(=O)OC(C)(C)C)ccc12 [BLRR-AMC, BOC-Leu-Arg-Arg-AMC] (Boc-Leu-Arg-Arg-{AMC})
Color Scores: Trichomonal hydrolases + NVS (trichomonal hydrolases [1]; pH 5 acetate): 0.114
Color Scores: Trichomonal hydrolases (trichomonal hydrolases [1]; pH 5 acetate): 0.536
Color Scores: Trichomonal hydrolases + NVS (trichomonal hydrolases [1]; pH 8 TRIS): 0.568
Color Scores: Trichomonal hydrolases (trichomonal hydrolases [1]; pH 8 TRIS): 0.463
Color Scores: Whole normal vaginal fluid ([2]; pH 5 acetate): 0.5
Color Scores: Whole normal vaginal fluid ([2]; pH 8 TRIS): 6

Cc1cc(=O)oc2cc(NC(=O)[C@H](CCCNC(=N)N)NC(=O)[C@H](CCCCN)NC(=O)[C@H](CCCCN)NC(=O)OCc3ccccc3)ccc12 [ZKKR-AMC, CBZ-Lys-Lys-Arg-AMC] (Cbz-Lys-Lys-Arg-{AMC})
Color Scores: Trichomonal hydrolases + NVS (trichomonal hydrolases [1]; pH 5 acetate): 0.099
Color Scores: Trichomonal hydrolases (trichomonal hydrolases [1]; pH 5 acetate): 0.225
Color Scores: Trichomonal hydrolases + NVS (trichomonal hydrolases [1]; pH 8 TRIS): 0.352
Color Scores: Trichomonal hydrolases (trichomonal hydrolases [1]; pH 8 TRIS): 0.357
Color Scores: Whole normal vaginal fluid ([2]; pH 5 acetate): 0.5
Color Scores: Whole normal vaginal fluid ([2]; pH 8 TRIS): 2

COc1cc(NC(=O)[C@H](CCCN=C(N)N)NC(=O)[C@H](CCCN=C(N)N)NC(=O)OCc2ccccc2)cc2ccccc12 [ZRR-MNA, CBZ-Arg-Arg-MNA]
Color Score (trichomonal hydrolases [3]): +
Color Score (trichomonal hydrolases [4]): ++
Color Scores: Trichomonal hydrolases + NVS (trichomonal hydrolases [1]; pH 5 acetate): 0.068
Color Scores: Trichomonal hydrolases (trichomonal hydrolases [1]; pH 5 acetate): 0.420
Color Scores: Trichomonal hydrolases + NVS (trichomonal hydrolases [1]; pH 8 TRIS): 0.182
Color Scores: Trichomonal hydrolases (trichomonal hydrolases [1]; pH 8 TRIS): 0.385
color production relative to that observed when vaginal fluid was not present (trichomonal hydrolases [5]; pH 8 TRIS buffer, 0.403/0.667): 60%
Absorbance Readings (trichomonal hydrolases [5]; with vaginal fluid supernatant, Acetate pH 5.1): 0.082
Absorbance Readings (trichomonal hydrolases [5]; with vaginal fluid supernatant, Borate pH 9.2): 0.089
Absorbance Readings (trichomonal hydrolases [5]; with vaginal fluid supernatant, Gly-gly pH 2.8): 0.085
Absorbance Readings (trichomonal hydrolases [5]; with vaginal fluid supernatant, HEPES pH 7.5): 0.386
Absorbance Readings (trichomonal hydrolases [5]; with vaginal fluid supernatant, MOPS pH 7.0): 0.313
Absorbance Readings (trichomonal hydrolases [5]; with vaginal fluid supernatant, TRIS pH 8.0): 0.403
Absorbance Readings (trichomonal hydrolases [5]; without vaginal fluid supernatant, Acetate pH 5.1): 0.792
Absorbance Readings (trichomonal hydrolases [5]; without vaginal fluid supernatant, Borate pH 9.2): 0.172
Absorbance Readings (trichomonal hydrolases [5]; without vaginal fluid supernatant, Gly-gly pH 2.8): 0.631
Absorbance Readings (trichomonal hydrolases [5]; without vaginal fluid supernatant, HEPES pH 7.5): 0.738
Absorbance Readings (trichomonal hydrolases [5]; without vaginal fluid supernatant, MOPS pH 7.0): 0.638
Absorbance Readings (trichomonal hydrolases [5]; without vaginal fluid supernatant, TRIS pH 8.0): 0.667
Color Scores: Whole normal vaginal fluid ([2]; pH 5 acetate): 3
Color Scores: Whole normal vaginal fluid ([2]; pH 8 TRIS): 4

KRQHPG
Hydrolase activity color score with polypeptide [6, 8]: 2
Hydrolase activity color score with polypeptide [6, 9]: 2
Hydrolase activity color score with polypeptide [6, 10]: 0
Hydrolase activity color score with polypeptide [6, 11]: 2
Hydrolase activity color score with polypeptide [6, 12]: 2.5
Hydrolase activity color score with polypeptide [6, 13]: 2
Hydrolase activity color score with polypeptide [6, 14]: 0.5
Hydrolase activity color score with polypeptide [6, 15]: 2
Hydrolase activity color score with polypeptide (trichomonal hydrolases [7]; pH 5, ZRR-MNA): 3
Hydrolase activity color score with polypeptide (trichomonal hydrolases [7]; pH 8, ZRR-MNA): 3

RPKPQFFGLM [Arg-Pro-Lys-Pro-Gln-Phe-Phe-Gly-Leu-Met]
Hydrolase activity color score with polypeptide [6, 8]: 0.5
Hydrolase activity color score with polypeptide [6, 9]: 1
Hydrolase activity color score with polypeptide [6, 10]: 0
Hydrolase activity color score with polypeptide [6, 11]: 0.5
Hydrolase activity color score with polypeptide [6, 12]: 0.5
Hydrolase activity color score with polypeptide [6, 13]: 0.5
Hydrolase activity color score with polypeptide [6, 14]: 0
Hydrolase activity color score with polypeptide [6, 15]: 0
Hydrolase activity color score with polypeptide (trichomonal hydrolases [7]; pH 5, ZRR-MNA): 1
Hydrolase activity color score with polypeptide (trichomonal hydrolases [7]; pH 8, ZRR-MNA): 0.5
